Read-outs that look alike come from different tables or passages of the source.
Tests used:
[1] = Plasma pharmacokinetics of niraparib and M1 by validated LC-MS/MS after a single oral 300 mg dose of 14C-niraparib; assay type: in vivo; conditions: human; for AUC(0-inf): read-out: AUC0-inf (mean); for AUC(0-t): read-out: AUC0-last (mean); for half-life: read-out: t1/2 (mean) (converted); for Tmax: read-out: tmax (median)
Method: Dose reductions were allowed twice. […] All patients provided written informed consent. Blood sampling was done at the following time points: pre-dose, 1, 1.5, 2, 3, 4, 6, 9 and 12 hours (h) after administration and in the morning of Day 2, 3, 4, 5, 8, 11, 15 and 22. For each time point, a 10 mL K2EDTA blood collection tube was used (Vacutainer®, Becton, Dickinson and Company, Franklin Lakes, NJ, USA) and blood was drawn via a peripheral line. […] Separate aliquots were made for radioactivity measurements as well as LC-MS/MS and metabolite profiling experiments. All samples were stored at −80 °C. […] Gradient elution was applied using 20 mM ammonium acetate in water (mobile phase A) and 0.1% formic acid in acetonitrile-methanol (50:50, v/v; mobile phase B). […] Quality control samples were prepared and analysed together with the study samples. […] Analysis was done by a non-compartmental method using WinNonlin Phoenix Version 6.2.1 or higher (Pharsight Corporation, St. Louis, Missouri, USA).

[2] = Metabolite profiling in plasma, urine and faeces by LC-LSC-MSn; assay type: in vivo, human; conditions: for Amount excreted in urine (0–144 h) / Amount excreted total, urine and faeces (0–144 h) / Amount excreted in faeces (0–144 h): % of administered dose; for Plasma exposure: relative AUC0-168h (% of AUC0-168h from total 14C): 0-168 h
Method: Metabolite profiling was divided into two parts: metabolite screening and identification, and metabolite quantification. During the first part, inter-patient pooled samples were analysed to screen for the presence of metabolites. Afterwards, individual patient samples or within-patient pooled samples (depending on the matrix) were analysed and metabolites found during the screening phase were quantified. Plasma, urine and faeces samples were selected both for screening and quantification. Three time points were selected for screening of plasma samples. Besides the pre-dose, a sample around the tmax was chosen, because these samples contained the highest amount of radioactivity. It was also of interest to select a sample in which the amount of radioactivity was much higher than the amount of parent compound, because this is indicative of the presence of metabolites. Consequently, 4 h and 48 h were selected and screened for metabolites. Individual patient samples from 0 […] and 168 h were analysed and metabolites in these samples were quantified. All urine samples were pooled within patients, and afterwards these samples were pooled between patients. […] The same procedure was applied for faeces samples. Again, 24 h-interval pools were made, first within patients and then between patients. The latter were used for metabolite screening, whereas the first were analysed afterwards, during the quantification step. […] Plasma samples (pre-dose, 4 h and 48 h) were pooled by equal volumes. In addition, the individual samples (pre-dose, 4 h, 12 h, 24 h, 48 h, 72 h and 168 h) were analysed. Plasma samples were extracted once with acetonitrile-methanol (50:50, v/v). […] An aliquot of the clear supernatant was analysed for total radioactivity to determine extraction efficiency. The remaining supernatant was used for analysis by LC-MS^n in combination with off-line LSC (LC-LSC-MS^n). Urine samples were first pooled within patients. […] These samples were analysed without pre-treatment. […] Faeces homogenate samples were extracted once with 0.1% formic acid in acetonitrile. […] An aliquot of the clear supernatant was analysed for total radioactivity to determine extraction recovery. The remaining supernatant was used for LC-LSC-MS^n analysis. Samples were analysed by LC (Shimadzu, Kyoto, Japan) coupled to a linear ion trap mass spectrometer (Thermo Electron, Waltham, MA, USA) in combination with off-line LSC (LC-Linear Ion Trap LTQ XL Mass Spectrometry (MS)-LSC). To separate known and unknown metabolites, an HPLC gradient was applied. A flow rate of 1 mL/min was maintained during the following 50-min gradient: starting at 10%B and increasing to 36.25%B over 35 min, then to 90%B in 12 min. This was held for 2 min and then it was reverted back to the initial conditions of 10%B at 49 min. Mobile phase A consisted of 20 mM ammonium acetate in water and mobile phase B consisted of 0.1% formic acid in acetonitrile. Structural information on niraparib metabolites was obtained using Data Dependent Acquisition. Accurate mass measurements were performed to confirm the chemical structures of the metabolites. These measurements were performed on an Ultimate 3000 LC (Dionex) coupled to an LTQ Orbitrap XL MS (Thermo Electron, Waltham). The same gradient composition was applied. […] The metabolite profiles of ^14C-niraparib-derived radioactivity were determined for selected aliquots of extracts of plasma, urine and faecal homogenates using LC-MS/MS, fractionation and off-line LSC. After pre-treatment, samples were injected onto a Phenomenex Synergi Hydro-RP (250 × 4.6 mm, 4 μm) column. Data Dependent Acquisition was applied, causing the detection and fragmentation of the most abundant ions. Besides this, a parent list with possible metabolites was constructed, meaning that apart from the most abundant ions, also the ones with the masses in this parent list were further fragmentised for which MS^2 and MS^3 spectra were obtained. […]

[3] = population pharmacokinetic analysis, all the patients in NOVA study; cited from earlier work
[4] = Method: Six evaluable patients were enrolled in this open-label mass balance clinical study (ClinicalTrials.gov identifier NCT02476552) and were admitted to the study center for at least 10 days, with the 11th day being optional. […] From the moment of administration, all urine and faeces were collected. […] Dose reductions were allowed twice. The study was conducted in conformance with the International Conference on Harmonisation (ICH) guidelines for Good Clinical Practice (GCP) and in accordance with the Declaration of Helsinki. The protocol was approved by the Netherlands Cancer Institute Independent Ethics Committee. All patients provided written informed consent.
For the purpose of the mass balance study and metabolite profiling, urine and faecal samples were collected. Urine was collected at pre-determined intervals: pre-dose, 0–12 h, 12–24 h, 24–36 h and 36–48 h after administration. From Day 3 onwards, urine was collected over periods of 24 h. Urine was stored in polyethylene containers at 2–8 °C for the duration of the collection period. After each collection period, urine samples were mixed thoroughly, weighed, portioned into aliquots, and then frozen at ≤ − 70 °C. Separate aliquots were made in polypropylene tubes for analysis by LC-MS/MS, metabolite profiling and TRA analysis by LSC.
Faeces were collected and weighted per stool. Sample pre-treatment involved diluting and homogenising the faeces by adding water (1:3 w/v; B. Braun). A T25 basic Ultra Turrax (IKA Works, Staufen, Germany) was used to homogenise the samples before aliquoting. Urine and faeces sample collection occurred according to the following requirements: • If the total radioactivity in the Day 14 faecal/urine sample is detected to be higher than 0.1% and the total recovery of accumulative radioactivity ≤85% (faeces and urine) of the radioactivity of the dose given, faecal/urine samples will be collected every 24 h through Day 21. • If the total radioactivity in the Day 21 faecal/urine sample is detected to be higher than 0.1% and the total recovery of accumulative radioactivity ≤85% (faeces and urine), faecal/urine samples will continue to be collected every 24 h. • Faecal/urine sample collection will stop after Day 21, if the recovered radioactivity is below 1% (per 24 h) for the two consecutive days prior to Day 21 (Day 19 and Day 20). If this is not the case, collection will stop as soon as the recovered radioactivity is below 1% (per 24 h) for two consecutive days after Day 21.
TRA analysis was performed on a Liquid Scintillation Counter Tri-Carp 2910 (PerkinElmer, Groningen, The Netherlands). Aliquots of 200 μL of whole blood, plasma and faeces (all in duplicate), and 1 mL of urine (in singular) were transferred to scintillation vials. Whole blood and faecal samples needed to be moderately translucent and colourless. Therefore, 2-propanol (1 mL) was added to faecal samples to dissolve fibres, NaEDTA (0.1 mL) was added to whole blood to reduce foaming, and Solvable™ (1 mL) was added to both matrices to solubilise tissue. Hydrogen peroxide 30% (0.4 mL to faeces and 0.5 mL to whole blood) was added to reduce colour intensity. These samples were placed in a water bath (at least 40 °C; GF1086, Salm en Kipp, Breukelen, The Netherlands) to stimulate the chemical processes. Finally, 10 mL of Ultima Gold™ Cocktail (PerkinElmer) was added and the samples were analysed, either for 60 min or until the 2-sigma error was less than or equal to 5%, whichever came first. A scintillant blank was used to provide as a background sample.

[5] = test system: recurrent, platinum sensitive, ovarian, fallopian tube, or primary peritoneal cancer; conditions: adult patients in complete or partial response to platinum-based chemotherapy; cited from earlier work
[6] = daily dose of 300 mg; cited from earlier work
[7] = Safety assessment (NCI CTCAE) in the mass balance study
Text: The National Cancer Institute Common Terminology Criteria for Adverse Events (NCI CTCAE) grading system was used to describe the severity of the adverse events (AEs) that occurred. Haematology, blood chemistry and vital signs were also part of the safety assessment.

[8] = plasma, single oral dose 300 mg 14C-niraparib, n = 6
[9] = % of administered dose, up to 144 h
[10] = % of administered radioactive dose, through 504 h post-dose

Compound `O=C(O)c1cccc2cn(-c3ccc([C@@H]4CCCNC4)cc3)nc12` [Compound M1, Amide hydrolysed niraparib] has a Cmax [1, 8] of 476 ng/mL, an AUC(0-inf) [1, 8] of 41200 ng·h/mL and an AUC(0-t) [1, 8] of 40800 ng·h/mL. For the same compound, the half-life [1, 8] was 78.4 h, the Tmax [1, 8] was 9.02 h and the “Amount excreted in urine (0–144 h)” value [2] was 20.0%. For the same compound, the “Amount excreted total, urine and faeces (0–144 h)” value (“Amount excreted total” for short) [2] was 22.4%, the “Amount excreted in faeces (0–144 h)” value ([2]; listed as M1 (4)) was 2.4% and the “Amount excreted in urine (0–144 h)” value ([2]; listed as M1 (4)) was 20%. For the same compound, the “Plasma exposure: relative AUC0-168h (% of AUC0-168h from total 14C)” value ([2]; listed as M1 (4)) was 9.3%.

For `COC(=O)c1cccc2cn(-c3ccc([C@@H]4CCCNC4)cc3)nc12` [Methylated M1 (7), Methylated M1], the “Amount excreted in urine (0–144 h)” value [2] was “not detected” and the “Plasma exposure: relative AUC0-168h (% of AUC0-168h from total 14C)” value [2] was 2.5%.

In the case of `NC(=O)c1cccc2cn(-c3ccc([C@@H]4CCCNC4)cc3)nc12` [niraparib, 2-{4-[(3S)-piperidin-3-yl]phenyl}-2H-indazole-7-carboxamide], the “apparent Vd/F” value [3] is given as 1074 L, the “Total radioactivity recovered in excreta (urine and faeces)” value [4, 9] is given as 71.6% and the “Total radioactivity recovered in faeces” value [4, 9] is given as 31.6%. The “Total radioactivity recovered in urine” value [4, 9] was 40%, the “Mean total radioactivity recovered in excreta (urine and faeces)” value [4, 10] was 86.3% and the “Mean total radioactivity recovered in faeces” value [4, 10] was 38.8%. The “Mean total radioactivity recovered in urine” value [4, 10] was 47.5%, the “Administered dose recovered in excreta” value ([4]; within the first 4 days (96 h) after dosing) was “over 50%” and the Vd/F ([1]; in vivo, oral, cancer patients, across the clinical studies, read-out: apparent Vd/F, collective conclusion) was ≥ 1000 L. The Cmax [1, 8] was 540 ng/mL, the AUC(0-inf) [1, 8] was 18500 ng·h/mL and the AUC(0-t) [1, 8] was 18400 ng·h/mL. It also gave a Vd/F ([1]; plasma, single oral dose 300 mg 14C-niraparib, n = 6, read-out: Vd/F (mean)) of 2170 L, a half-life [1, 8] of 87.4 h and a Tmax [1, 8] of 2.49 h. The “progression-free survival (PFS)” value [5] was “met its primary endpoint of improving progression-free survival”, the tolerability [6] was “well tolerated” and the “Grade of AEs considered likely to be related to study treatment” value ([7]; NCI CTCAE) was ≤ 2 grade. The “TEAEs leading to study drug discontinuation or death” value ([7]; six patients) was “no TEAEs led to study drug discontinuation or death”, the “Total number of adverse events reported” value ([7]; six patients, single oral dose 300 mg) was 21 and the “Amount excreted in faeces (0–144 h)” value ([2]; listed as Niraparib (5)) was 18.7%. For the same compound, the “Amount excreted in urine (0–144 h)” value ([2]; listed as Niraparib (5)) was 10.5%, the “Amount excreted total” value ([2]; listed as Niraparib (5)) was 29.2% and the “Amount excreted in faeces (0–144 h)” value ([2]; listed as niraparib (5)) was 18.7%. For the same compound, the “Amount excreted in urine (0–144 h)” value ([2]; listed as niraparib (5)) was 10.5%.

For M1-glucuronide [Compound M10], the “Amount excreted in urine (0–144 h)” value [2] was 6.2% and the “Plasma exposure: relative AUC0-168h (% of AUC0-168h from total 14C)” value [2] was 55.7%.

For M1-glucuronide [M10 (1)], the “Amount excreted in urine (0–144 h)” value [2] was “<LLOQ” and the “Plasma exposure: relative AUC0-168h (% of AUC0-168h from total 14C)” value [2] was 6.0%.

For M1-glucuronide [M10 (2)], the “Amount excreted in urine (0–144 h)” value [2] was 6.2%, the “Amount excreted total” value [2] was 6.2% and the “Plasma exposure: relative AUC0-168h (% of AUC0-168h from total 14C)” value [2] was 26.8%.

In the case of M1-glucuronide [M10 (3)], the “Amount excreted in urine (0–144 h)” value [2] is reported as “<LLOQ” and the “Plasma exposure: relative AUC0-168h (% of AUC0-168h from total 14C)” value [2] is reported as 22.9%.
